Here are results for 5 molecules from US10385056B2, “4-substituted pyrrolo[2,3-d]pyrimidine compound and use thereof” (JIANGSU CAREFREE PHARMACEUTICAL CO., LTD, priority 2014, dated 2019).

Test [1] concerns rat with rheumatoid arthritis. The test is described as follows: Collagen-induced rheumatoid arthritis model, arthritis score. Particulars: DBA/1J rat, bovine Type II collagen/CFA model, intragastric administration, scored 2 weeks after administration, 1-4 scoring method. It is filed as in vivo. As to the method:
For the function of the compound inhibiting rheumatoid arthritis, selecting DBA/1J rat, carrying out subcutaneous injection after complete emulsion of 50 ug of bovine Type II collagen and isometric complete Freund's adjuvant (CFA). Strengthening immunization once 21 days after adequate emulsion of 50 ug of same antigen and incomplete Freund's adjuvant (IFA). Starting observation and recording from the 45th day. Using 1-4 scoring method: 1 score, normal; 2 scores, swelling of one joint; 3 scores, swelling of more than one joint but not all joints; 4 scores, severe swelling or stiffness of the whole claw. Adding scores of all claws to obtain the total score of arthritis in rat. Showing successful model establishment when the total joint score of the rat is more than 1. After successfully establishing the model of rat with rheumatoid arthritis, using the compound of the invention to feed the rat by intragastric administration and scoring arthritis of the rat 2 weeks after administration.

Another test deals with JAK1 (Homo sapiens, UniProt P23458). Kind of test: Caliper Mobility Shift Assay, kinase inhibition. It is filed as biochemical. Particulars: ATP by Km value.
JAK1, sequence (P23458 whole entry, species assumed): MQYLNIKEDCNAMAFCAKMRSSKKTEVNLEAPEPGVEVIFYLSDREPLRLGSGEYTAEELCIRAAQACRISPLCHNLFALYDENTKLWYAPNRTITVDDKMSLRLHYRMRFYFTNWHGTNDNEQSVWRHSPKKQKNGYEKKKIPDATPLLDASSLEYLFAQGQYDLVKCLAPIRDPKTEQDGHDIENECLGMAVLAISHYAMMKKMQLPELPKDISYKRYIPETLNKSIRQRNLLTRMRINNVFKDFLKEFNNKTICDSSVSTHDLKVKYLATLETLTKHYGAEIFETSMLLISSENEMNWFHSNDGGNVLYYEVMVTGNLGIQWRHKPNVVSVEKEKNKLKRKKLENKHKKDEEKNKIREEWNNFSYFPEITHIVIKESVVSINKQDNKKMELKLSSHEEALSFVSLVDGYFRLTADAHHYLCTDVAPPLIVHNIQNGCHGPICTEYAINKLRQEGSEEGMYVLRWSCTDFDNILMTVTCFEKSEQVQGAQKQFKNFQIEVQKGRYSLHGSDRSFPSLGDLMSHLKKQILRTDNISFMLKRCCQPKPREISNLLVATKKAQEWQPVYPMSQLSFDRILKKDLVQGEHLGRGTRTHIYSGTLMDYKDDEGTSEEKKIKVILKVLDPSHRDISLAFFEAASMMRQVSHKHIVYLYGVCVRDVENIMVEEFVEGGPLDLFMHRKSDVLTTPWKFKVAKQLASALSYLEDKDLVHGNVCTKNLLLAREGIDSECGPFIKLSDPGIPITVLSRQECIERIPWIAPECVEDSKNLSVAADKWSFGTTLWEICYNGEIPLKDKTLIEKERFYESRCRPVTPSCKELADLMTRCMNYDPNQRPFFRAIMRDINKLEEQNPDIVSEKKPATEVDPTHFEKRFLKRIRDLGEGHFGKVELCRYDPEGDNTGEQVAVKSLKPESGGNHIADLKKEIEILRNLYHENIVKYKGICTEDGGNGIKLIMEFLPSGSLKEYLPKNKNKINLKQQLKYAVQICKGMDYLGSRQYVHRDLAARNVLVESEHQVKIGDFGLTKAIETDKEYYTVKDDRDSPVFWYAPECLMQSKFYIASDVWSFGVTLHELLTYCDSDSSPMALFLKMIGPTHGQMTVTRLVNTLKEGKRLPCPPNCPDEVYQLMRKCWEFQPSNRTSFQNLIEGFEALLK
A further test deals with JAK2 (Homo sapiens, UniProt O60674). Kind of test: Caliper Mobility Shift Assay, kinase inhibition. The conditions noted are these: ATP by Km value. In kind it is biochemical.
JAK2, sequence (O60674 whole entry, species assumed): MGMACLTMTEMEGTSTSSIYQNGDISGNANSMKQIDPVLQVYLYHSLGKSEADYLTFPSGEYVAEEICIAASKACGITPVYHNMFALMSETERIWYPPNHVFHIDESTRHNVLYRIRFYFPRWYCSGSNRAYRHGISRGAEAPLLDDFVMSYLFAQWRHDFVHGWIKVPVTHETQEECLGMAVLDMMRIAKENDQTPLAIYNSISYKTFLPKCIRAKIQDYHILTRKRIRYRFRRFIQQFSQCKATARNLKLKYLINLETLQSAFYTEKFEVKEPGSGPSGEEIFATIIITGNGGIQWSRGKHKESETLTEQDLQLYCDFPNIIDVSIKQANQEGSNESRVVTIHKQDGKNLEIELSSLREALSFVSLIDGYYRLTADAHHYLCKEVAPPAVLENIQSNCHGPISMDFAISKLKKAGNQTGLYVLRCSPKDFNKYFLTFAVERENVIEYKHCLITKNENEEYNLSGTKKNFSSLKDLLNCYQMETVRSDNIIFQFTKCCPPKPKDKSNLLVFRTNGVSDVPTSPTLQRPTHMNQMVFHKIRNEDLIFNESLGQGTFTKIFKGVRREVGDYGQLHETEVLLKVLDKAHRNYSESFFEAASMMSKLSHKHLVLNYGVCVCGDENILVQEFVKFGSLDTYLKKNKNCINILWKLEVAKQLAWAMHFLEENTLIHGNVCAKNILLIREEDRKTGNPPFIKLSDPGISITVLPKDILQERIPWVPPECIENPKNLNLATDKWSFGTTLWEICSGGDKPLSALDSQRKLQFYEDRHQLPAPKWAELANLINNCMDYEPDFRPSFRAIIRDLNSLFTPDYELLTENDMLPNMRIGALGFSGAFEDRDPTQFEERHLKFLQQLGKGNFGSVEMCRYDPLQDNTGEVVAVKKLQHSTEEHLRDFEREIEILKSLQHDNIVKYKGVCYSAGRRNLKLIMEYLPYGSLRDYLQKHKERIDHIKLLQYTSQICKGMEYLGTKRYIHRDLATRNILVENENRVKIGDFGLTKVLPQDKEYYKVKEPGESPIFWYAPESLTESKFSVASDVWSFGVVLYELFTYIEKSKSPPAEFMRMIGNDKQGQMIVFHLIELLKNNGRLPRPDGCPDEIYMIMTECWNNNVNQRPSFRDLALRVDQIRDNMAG
The target in another test is T1, JAK3 (Homo sapiens, UniProt P52333).
T1 sequence (P52333 1-1124): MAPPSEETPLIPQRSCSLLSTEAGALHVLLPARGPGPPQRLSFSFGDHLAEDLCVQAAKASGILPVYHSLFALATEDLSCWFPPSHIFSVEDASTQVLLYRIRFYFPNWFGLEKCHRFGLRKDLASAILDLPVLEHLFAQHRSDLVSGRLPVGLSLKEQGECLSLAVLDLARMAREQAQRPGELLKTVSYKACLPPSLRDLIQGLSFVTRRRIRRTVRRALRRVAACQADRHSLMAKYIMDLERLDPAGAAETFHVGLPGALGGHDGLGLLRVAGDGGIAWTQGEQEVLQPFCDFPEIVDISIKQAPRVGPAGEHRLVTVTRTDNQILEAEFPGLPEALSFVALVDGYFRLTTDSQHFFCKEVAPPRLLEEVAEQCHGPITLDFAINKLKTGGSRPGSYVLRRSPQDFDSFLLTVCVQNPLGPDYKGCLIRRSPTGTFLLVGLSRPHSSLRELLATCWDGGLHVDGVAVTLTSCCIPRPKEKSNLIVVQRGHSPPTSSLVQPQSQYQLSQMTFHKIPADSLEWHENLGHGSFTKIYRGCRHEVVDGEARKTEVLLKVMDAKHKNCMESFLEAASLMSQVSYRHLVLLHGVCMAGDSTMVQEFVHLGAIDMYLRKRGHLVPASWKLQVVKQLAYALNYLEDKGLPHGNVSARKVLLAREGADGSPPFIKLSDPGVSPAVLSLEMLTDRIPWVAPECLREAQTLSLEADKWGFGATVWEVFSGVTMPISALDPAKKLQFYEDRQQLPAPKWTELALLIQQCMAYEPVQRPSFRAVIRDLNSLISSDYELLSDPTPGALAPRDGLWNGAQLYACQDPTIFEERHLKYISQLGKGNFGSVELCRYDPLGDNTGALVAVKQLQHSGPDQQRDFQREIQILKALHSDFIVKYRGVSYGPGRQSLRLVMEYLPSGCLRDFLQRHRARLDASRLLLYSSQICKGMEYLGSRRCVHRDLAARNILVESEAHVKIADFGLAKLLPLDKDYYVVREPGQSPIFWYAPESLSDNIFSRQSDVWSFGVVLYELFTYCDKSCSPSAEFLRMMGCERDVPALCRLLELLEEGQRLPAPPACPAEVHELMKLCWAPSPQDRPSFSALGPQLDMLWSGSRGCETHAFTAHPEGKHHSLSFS
Kind of test: Caliper Mobility Shift Assay, kinase inhibition. The conditions noted are these: ATP by Km value. It is filed as biochemical.

In a further test the test system is phosphorylated JAK1. The test is described as follows: CTLL-2 cells, IL-2 stimulated, Western blot of phosphorylation. In kind it is cell-based. Particulars: Mus musculus, starved 6 h with compound, IL-2 150 U/mL 10 min, phosphorylated JAK1 by Western blot, read-out: IC50 g (nM) JAK1. As to the method: (§1) Incubating for 10 min and collecting cells. Adding cell lysis buffer for cell lysis. Collecting protein to perform WEST-Blot detection, detecting phosphorylated JAK1, the phosphorylation of JAK2 and the phosphorylated STAT5, and obtaining the IC50 value.

The test system of another test is phosphorylated STAT5. The test is described as above. In kind it is cell-based. Particulars: Mus musculus, starved 6 h with compound, IL-2 150 U/mL 10 min, phosphorylated STAT5 by Western blot, read-out: IC50 g (nM) STAT5. The method, then:
as §1
A general note: In western blotting, separated proteins are transferred to a membrane and probed.

A further test relates to phosphorylation of JAK2. Described as above. In kind it is cell-based. Particulars: Mus musculus, starved 6 h with compound, IL-2 150 U/mL 10 min, phosphorylation of JAK2 by Western blot, read-out: IC50 g (nM) JAK2. As to the method:
as §1

A further test concerns Jurkat cells. Kind of test: Inhibition of cell proliferation of human lymphocytoma (CCK-8). In kind it is cell-based. Particulars: 48 h, CCK-8, 450 nm absorption. The method, then:
Spreading the Jurkat cells out for in-vitro cultivation on a 96-well plate with 1500 cells in each well, making the highest concentration of the compound be 50 μM in the cultivation system, and diluting the drug concentration according to 10-time step dilution.

The molecule `CCS(=O)(=O)N1CC(CC#N)(n2cc(-c3ncnc4[nH]ccc34)cn2)C1` [Baricitinib, reference compound] came in with a Score of arthritis in test [1] of 2.4.

As a reminder, the IC50 is the concentration at which inhibition is half-maximal. Consider `CCCCS(=O)(=O)N1CC(CC#N)(n2cc(-c3ncnc4[nH]ccc34)c3ccccc32)C1` [Example 6, 2-(3-(3-(7H-pyrrole[2,3-d]pyrimidine-4-yl)-1H-indole-1-yl)-1-(butylsulfonyl)azetidine-3-yl)acetonitrile], for which the IC50 turned out to be 22 nM on JAK1; 7.1 nM on JAK2; 200 nM at JAK3; 22 nM with phosphorylated JAK1; 322 nM with phosphorylated STAT5; 8 nM with phosphorylation of JAK2. This molecule also showed an IC50 in the test on Jurkat cells of 458 nM. For the same molecule, the Score of arthritis in test [1] was 2.3.

`CN(C)S(=O)(=O)N1CC(CC#N)(n2cc(-c3ncnc4[nH]ccc34)c3ccccc32)C1` [Example 7]: the IC50 on JAK1 stood at 15 nM; on JAK2 it was 1.5 nM; on JAK3 it was 116 nM; in the test with phosphorylated JAK1, 45 nM; with phosphorylated STAT5, 214 nM; with phosphorylation of JAK2, 9.6 nM. This molecule also gave an IC50 in the test on Jurkat cells of 123 nM. The Score of arthritis in test [1] turned out to be 2.5.

For the molecule `CCS(=O)(=O)N1CC(CC#N)(n2cc(-c3ncnc4[nH]ccc34)c3ccc(F)cc32)C1` [Example 20, 2-(1-(ethylsulfonyl)-3-(6-fluoro-3-(7H-pyrrole[2,3-d]pyrimidine-4-yl)-1H-indole-1-yl)azetidine-3-yl)acetonitrile], the IC50 at JAK1 was found to be 0.5 nM; at JAK2, 0.61 nM; on JAK3, 28 nM; in the test with phosphorylated JAK1, 18.5 nM; with phosphorylated STAT5 it was 309 nM; in the test on phosphorylation of JAK2, 15.2 nM. Moreover, it took 225 nM to reach half-maximal inhibition with Jurkat cells (IC50). The Score of arthritis in test [1] stood at 1.6.

With `CCS(=O)(=O)N1CC(CC#N)(n2cc(-c3ncnc4[nH]ccc34)c3cc(OC)ccc32)C1` [Example 64, 2-(1-(ethylsulfonyl)-3-(5-methoxyl-3-(7H-pyrrole[2,3-d]pyrimidine-4-yl)-1H-indole-1-yl)azetidine-3-yl)acetonitrile], the IC50 at JAK1 came out at 23 nM; at JAK2, 2.9 nM; at JAK3, 262 nM; with phosphorylated JAK1 it was 42.9 nM; in the test on phosphorylated STAT5 it was 201 nM; in the test on phosphorylation of JAK2, 28.7 nM. In the test on Jurkat cells, the IC50 stood at 136 nM. This molecule also showed a Score of arthritis in test [1] of 2.3.
